One data set relates to 3T3-L1 preadipocytes. The data set can be described thus: Oil Red O staining assay of adipocyte differentiation. It counts as cell-based, mouse. To be noted: for inhibition at 25 µM: Mus musculus, 3T3-L1, relative absorbance from Oil Red O staining at 25 μM, read-out: Inhibitory activity (%) on adipocyte differentiation. Here is the method: The GW9662-mediated inhibition of PPARγ was confirmed using an Oil Red O staining assay to measure adipocyte differentiation. To investigate whether the novel compounds could inhibit adipocyte differentiation, 3T3-L1 preadipocytes were incubated with differentiation medium (MDI; insulin, dexamethasone, and isobutyl methyl xanthine) in the presence of increasing concentrations of isoquinolinoquinazolinones. Adipogenesis was analyzed using Oil Red O staining after treatment with the compounds.
The mouse preadipocyte cell line 3T3-L1 was maintained at 37 °C in humidified air with 5% CO2. 3T3-L1 cells were cultured in Dulbecco’s modified Eagle medium (DMEM; Life Technologies) supplemented with 10% bovine serum (BS; Gibco Invitrogen, Carlsbad, California, USA) as growth medium. For adipocyte differentiation, cells were cultured for 2 days to full confluence in a 24-well plate and the growth medium was then replaced (day 0) with DMEM supplemented with 10% fetal bovine serum (FBS, Gibco Invitrogen, Carlsbad, California, USA), 5 μg/mL insulin (Sigma, St. Louis, Missouri, USA), 0.5 mM 3-isobutyl-1-methylxanthine (Sigma), and 1 μM dexamethasone (Sigma). After 48 h, the differentiation medium was replaced (day 2) with DMEM + 10% FBS containing 5 μg/mL insulin, and the cells were allowed to accumulate lipid droplets until experimental use.
The accumulation of lipids signifying the formation of adipocytes was observed by staining the differentiated cells with Oil Red O. Following differentiation, cells were washed twice with phosphate-buffered saline (PBS), fixed with 10% formalin for 60 min. Oil Red O stock solution (0.5%) was prepared in isopropanol and filtered in cellulose nitrate filters. Cells were stained with Oil Red O diluted 6:4 in water for 1 h at room temperature. Excess Oil Red O dye was washed off twice with distilled water and then dried. The stained lipid droplets within cells were visualized using an optical microscope and photographed with a digital camera at 100× magnification.

Another data set addresses T1, PPARγ2 (Mus musculus, UniProt P37238).
T1 construct: expressed in transfected cells; host or cells: 3T3-L1 (mouse preadipocytes), pCS4 CMV vector
T1 sequence (P37238 1-505): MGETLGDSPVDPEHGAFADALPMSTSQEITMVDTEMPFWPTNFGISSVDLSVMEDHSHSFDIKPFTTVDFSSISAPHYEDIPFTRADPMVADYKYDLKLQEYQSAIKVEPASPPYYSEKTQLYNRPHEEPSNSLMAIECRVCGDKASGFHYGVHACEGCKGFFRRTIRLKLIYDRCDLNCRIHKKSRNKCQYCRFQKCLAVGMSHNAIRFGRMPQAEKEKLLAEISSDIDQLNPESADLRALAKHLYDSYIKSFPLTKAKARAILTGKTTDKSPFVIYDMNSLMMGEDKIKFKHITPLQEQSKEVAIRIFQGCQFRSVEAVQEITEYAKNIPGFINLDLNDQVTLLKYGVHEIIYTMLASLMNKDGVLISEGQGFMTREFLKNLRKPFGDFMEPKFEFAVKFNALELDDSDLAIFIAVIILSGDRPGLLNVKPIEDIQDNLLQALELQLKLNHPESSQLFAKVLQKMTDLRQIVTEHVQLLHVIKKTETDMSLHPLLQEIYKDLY
The data set can be described thus: PPRE-Luc luciferase reporter assay of PPARγ2-induced transcriptional activity in 3T3-L1 cells. It counts as cell-based. The procedure: To analyze whether isoquinolinoquinazolinones inhibit the transactivation of PPARγ, 3T3-L1 cells were cotransfected with full-length PPARγ2 expression vector with a peroxisome proliferator response element (PPRE)-driven luciferase reporter gene (PPRE-Luc) that has been reported to respond to PPARγ[23][24]. […] Titration curves were generated using Graph Pad Prism®, and the IC50 value of each compound with respect to PPARγ2-induced transcriptional activity was determined.
The transcription activity was determined in 3T3-L1 cells transiently co-transfected with PPRE-driven luciferase reporter gene (PPRE-Luc) and PPARγ2 expression vector. […] After 24 h of transfection, the cells were cultured with indicated combination for 12 h. Luciferase activity was measured after 36 h.
For plasmids expressing PPARγ2, full length PPARγ2 (mouse, 1518 bp: NCBI Reference Sequence: NP_035276.2) was subcloned into CMV promoter-derived mammalian expression vector (pCS4). Plasmids for C285G, R288G mutant PPARγ2 were generated by PCR-based site-directed mutagenesis and also subcloned into CMV promoter-derived mammalian expression vector (pCS4).
3T3-L1 cells were transfected for indicated combinations of expression plasmids along with a luciferase reporter plasmid (PPRE-Luc). PPRE-Luc contains the consensus PPAR responsive element (PPRE). pCMV-β-gal was co-transfected for normalization of transfection efficiency. 24 h after transfection, cells were treated with indicated compounds for 12 h. Luciferase activities were measured using a luciferase reporter assay kit (Promega, Madison, WI, USA). Experiments were performed in triplicate and repeated at least three times.
For orientation: In a reporter assay the amount or activity of a reporter protein is the signal.

Broadly, the IC50 is the point on the concentration scale where inhibition reaches its midpoint. For orientation: melting point means the temperature, or range, at which the solid turns liquid.

In the case of “6,8-Dihydro-5H-isoquinolino[2,3-c]quinazoline [Compound 9]”, in the data set on 3T3-L1 preadipocytes (relative absorbance from Oil Red O staining at 25 μM), the “Inhibitory activity (%) on adipocyte differentiation” value is on record as 62.5%.

With `COc1ccc2cc3[n+](cc2c1OC)CCc1cc2c(cc1-3)OCO2` [Berberine], the inhibition at 25 µM in the data set with 3T3-L1 preadipocytes turned out to be 71.4%. Also, at PPARγ2 (5 μM, with rosiglitazone), the “inhibition of PPARγ2 transfection (transcriptional activity), with rosiglitazone stimulation” value came out at 40%. The “inhibition of PPARγ2 transfection (transcriptional activity), compound alone” value at PPARγ2 (5 μM, without rosiglitazone) worked out at 33%. In addition, the IC50 on PPARγ2 (3T3-L1 cotransfected with PPARγ2 and PPRE-Luc, read-out: IC50 with respect to PPARγ2-induced transcriptional activity) was determined as 6.63 µM.

`O=c1c2ccccc2cc2n1CNc1ccccc1-2` [Compound 8a, 5H-Isoquinolino[2,3-c]quinazolin-8(6H)-one] yielded a melting point of 204.3 to 206.3 °C. In addition, the inhibition at 25 µM with 3T3-L1 preadipocytes was 53%.

The compound `Cc1cccc2c(=O)n3c(cc12)-c1ccccc1NC3` [Compound 8b] displayed a melting point of 226.5 to 228.1 °C. Further, in the data set with 3T3-L1 preadipocytes, the inhibition at 25 µM amounted to 49%.

`Cc1cccc2c(=O)n3c(cc12)-c1cc(Cl)ccc1NC3` [Compound 8c] gave a melting point of 240.5 to 242.1 °C. Moreover, the inhibition at 25 µM in the data set with 3T3-L1 preadipocytes turned out to be 30.9%.

The compound `Cc1ccc2c(=O)n3c(cc2c1)-c1ccccc1NC3` [Compound 8d] showed a melting point of 119.1 to 120.4 °C. In the data set with 3T3-L1 preadipocytes, the inhibition at 25 µM came out at 53.9%.

In turn, `Cc1ccc2c(=O)n3c(cc2c1)-c1ccc(Cl)cc1NC3` [Compound 8e] showed a melting point of 210 to 211.5 °C. For the same compound, in the data set on 3T3-L1 preadipocytes, the inhibition at 25 µM was 63.3%.

As to `Cc1ccc2cc3n(c(=O)c2c1)CNc1ccccc1-3` [Compound 8f], the melting point lay in the range of 213.2 to 214.5 °C. The inhibition at 25 µM with 3T3-L1 preadipocytes worked out at 28.6%.

With `Cc1ccc2cc3n(c(=O)c2c1)CNc1ccc(Cl)cc1-3` [Compound 8g], the melting point fell in the range of 202.6 to 205.1 °C. Moreover, the inhibition at 25 µM in the data set on 3T3-L1 preadipocytes is 42.4%.

Take `Cc1cc2cc3n(c(=O)c2cc1C)CNc1ccccc1-3` [Compound 8h]: the melting point was 212.7 to 214.2 °C. In addition, the inhibition at 25 µM in the data set with 3T3-L1 preadipocytes turned out to be 41.6%.

As to `Cc1cc2cc3n(c(=O)c2cc1C)CNc1ccc(Cl)cc1-3` [Compound 8i], the melting point was 268.7 to 270.6 °C. Also, the inhibition at 25 µM in the data set with 3T3-L1 preadipocytes was 49.8%.

As for `Cc1cc2cc3n(c(=O)c2cc1C)CNc1cc(Cl)ccc1-3` [Compound 8j], the melting point fell in the range of 235.1 to 236.4 °C. For the same compound, in the data set with 3T3-L1 preadipocytes, the inhibition at 25 µM came to 53%.

The compound `COc1ccc2c(=O)n3c(cc2c1)-c1ccccc1NC3` [Compound 8k] returned a melting point of 145.4 to 148 °C. In addition, the inhibition at 25 µM with 3T3-L1 preadipocytes was 56.1%.

Compound `COc1ccc2c(=O)n3c(cc2c1)-c1ccc(Cl)cc1NC3` [Compound 8l] showed a melting point of 213.6 to 215.1 °C. Moreover, in the data set with 3T3-L1 preadipocytes, the inhibition at 25 µM worked out at 39.1%.

As to `COc1ccc2c(=O)n3c(cc2c1)-c1cc(Cl)ccc1NC3` [Compound 8m], the melting point lay in the range of 203.9 to 205.2 °C. Moreover, in the data set with 3T3-L1 preadipocytes, the inhibition at 25 µM amounted to 28.1%.

Take `Cc1cccc2c(=O)n3c(cc12)-c1ccccc1OC3` [Compound 10a]: the inhibition at 25 µM with 3T3-L1 preadipocytes came out at 23.6%.

`Cc1ccc2c(=O)n3c(cc2c1)-c1ccccc1OC3` [Compound 10b]: the inhibition at 25 µM in the data set on 3T3-L1 preadipocytes came to 25.7%.

In the case of `Cc1cc2cc3n(c(=O)c2cc1C)COc1ccccc1-3` [Compound 10c], the inhibition at 25 µM in the data set on 3T3-L1 preadipocytes came out at 60.4%.

`COc1ccc2c(=O)n3c(cc2c1OC)-c1ccccc1OC3` [Compound 10d]: the inhibition at 25 µM in the data set on 3T3-L1 preadipocytes turned out to be 62.5%.

Turning to `Cc1cccc2c(=O)n3c(cc12)-c1cc2c(cc1OC3)OCO2` [Compound 10e], the inhibition at 25 µM in the data set with 3T3-L1 preadipocytes stood at 44.8%.

Consider `Cc1ccc2c(=O)n3c(cc2c1)-c1cc2c(cc1OC3)OCO2` [Compound 10f], for which the inhibition at 25 µM in the data set on 3T3-L1 preadipocytes turned out to be 30.5%.

Regarding `Cc1ccc2cc3n(c(=O)c2c1)COc1cc2c(cc1-3)OCO2` [Compound 10g], in the data set on 3T3-L1 preadipocytes, the inhibition at 25 µM came out at 40.9%.

Turning to `Cc1cc2cc3n(c(=O)c2cc1C)COc1cc2c(cc1-3)OCO2` [Compound 10h], in the data set with 3T3-L1 preadipocytes, the inhibition at 25 µM came out at 38.8%.

`CN(CCOc1ccc(CC2SC(=O)NC2=O)cc1)c1ccccn1` (stereo not shown) [Rosiglitazone]: the “increase of luciferase expression” value at PPARγ2 (rosiglitazone treatment, PPRE-Luc) is given as “up to 3 fold”.

For the origin of these results see publication PMC5046141, “Discovery of Isoquinolinoquinazolinones as a Novel Class of Potent PPARγ Antagonists with Anti-adipogenic Effects” (Scientific Reports, 2016).
